The assay deals with Delta-type opioid receptor (Mus musculus) (UniProt P32300). The experiment in a line: Ability to induce 50% of maximal effect in mouse vas deferens expressing Opioid receptor delta 1.

The term IC50 denotes the concentration at which inhibition is half-maximal. A high value points to lower potency.

The structures appear in SMILES notation.

Delta-type opioid receptor (Mus musculus), sequence (P32300 whole entry, looked up): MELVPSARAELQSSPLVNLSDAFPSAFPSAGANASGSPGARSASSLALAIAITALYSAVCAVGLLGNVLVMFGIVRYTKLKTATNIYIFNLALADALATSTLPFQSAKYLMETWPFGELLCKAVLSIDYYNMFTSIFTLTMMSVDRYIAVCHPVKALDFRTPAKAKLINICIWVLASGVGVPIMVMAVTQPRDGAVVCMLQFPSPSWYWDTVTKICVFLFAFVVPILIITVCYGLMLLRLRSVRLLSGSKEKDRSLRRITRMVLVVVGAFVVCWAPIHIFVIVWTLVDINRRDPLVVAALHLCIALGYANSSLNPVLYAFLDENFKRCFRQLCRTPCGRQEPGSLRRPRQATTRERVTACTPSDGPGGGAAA

`CC1C2Cc3ccc(O)cc3C1(C)CCN2CCc1ccccc1` (stereo unspecified) had an IC50 of 8 nM.

The record behind these values is BindingDB's records for doi:10.1021/jm00365a017 (1983).
